Active and inactive are the calls of the source.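 How the source made its calls: active means maximal inhibition of the USP30 enzyme reaching 30% or more across the dose series; inactive means the rest.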
molecular target: Ubiquitin carboxyl-terminal hydrolase 30 (Homo sapiens) (UniProt Q70CQ3); test: ubiquitin-specific protease 30 DUB inhibitors, concentration-effect, biochemical, validation of primary actives (AID 1645865); conditions: purified USP30, Ub-rhodamine cleavage, fluorescence, 2 h
Sequence (Q70CQ3 whole entry, looked up): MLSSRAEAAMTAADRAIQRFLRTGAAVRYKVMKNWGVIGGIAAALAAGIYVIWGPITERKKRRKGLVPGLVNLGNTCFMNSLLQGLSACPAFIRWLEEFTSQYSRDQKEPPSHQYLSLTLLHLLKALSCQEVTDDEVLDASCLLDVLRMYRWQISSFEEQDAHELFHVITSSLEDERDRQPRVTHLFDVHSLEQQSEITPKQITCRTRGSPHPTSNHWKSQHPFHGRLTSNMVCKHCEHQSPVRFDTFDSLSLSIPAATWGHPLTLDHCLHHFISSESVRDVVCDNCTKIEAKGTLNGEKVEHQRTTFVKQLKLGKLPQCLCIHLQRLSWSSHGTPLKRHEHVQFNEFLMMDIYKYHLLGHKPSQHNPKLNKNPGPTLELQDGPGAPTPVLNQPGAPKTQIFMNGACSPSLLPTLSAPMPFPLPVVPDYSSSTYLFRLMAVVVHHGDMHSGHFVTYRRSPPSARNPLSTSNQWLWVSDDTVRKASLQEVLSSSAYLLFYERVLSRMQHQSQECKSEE

SMILES	IC50
O=C(Nc1ccc2c(c1)OCO2)c1cc(-c2cccnc2)n(-c2ccccc2)n1	> 50 µM (inactive)
O=C(CSc1nc2cc(S(=O)(=O)Nc3ccccc3Cl)ccc2o1)Nc1ccc(N2CCOCC2)cc1	49.6 µM
CC(C)c1ccc(NC(=O)COC(=O)c2ccc3[nH]c4c(c3c2)CCCC4)cc1	34.1 µM
O=S(c1ccc2ccccc2c1)c1cnns1 (stereo not given)	> 50 µM (inactive)
O=C(Cn1nnc(-c2ccc(F)cc2)n1)NCCc1ccccc1	> 50 µM (inactive)
CC(C)C1Cc2c(sc3nc(SCC(=O)Nc4cccc5ccccc45)nc(N)c23)CO1 (stereo not given)	> 50 µM (inactive)
CSc1ccccc1C(=O)Nc1nc(-c2ccncc2)cs1	23.3 µM
CN(Cc1ccccc1)S(=O)(=O)c1ccc(S(=O)(=O)N2CCN(C(=O)c3cccnc3)CC2)cc1	15.8 µM
O=C(CCc1c[nH]c2ccccc12)Nc1ccc(N2CCOCC2)cc1	25.1 µM
COc1cccc(NC(=O)Nc2ccc(CCc3nc4ccccc4[nH]3)cc2)c1	28.2 µM
CCc1nc(N2CCCC2=O)sc1C(=O)Nc1cccc(C(C)=O)c1	> 50 µM (inactive)
CC(C)=CCC/C(C)=C/Cc1c(O)cc2c(c1O)C(=O)OC2	1.24 µM
O=c1[nH]c2ccc(S(=O)(=O)Nc3ccc(O)c4ccccc34)cc2[nH]1	> 50 µM (inactive)
COCCn1c(=O)[nH]c2cc(C(=O)NCCNc3ccc([N+](=O)[O-])cc3C#N)ccc2c1=O	2.35 µM
COc1cc(NC(=O)Cc2ccccc2)ccc1NC(=O)c1cc2ccccc2o1	2.32 µM
COc1ccc(C2CC(=O)Nc3n[nH]c(-c4ccccc4)c32)cc1OC (stereo not given)	18.8 µM
COc1ccc(/C=C/C(=O)Nc2cccc(S(=O)(=O)Nc3ccccc3Cl)c2)c(OC)c1	25.6 µM
COc1cc(NC(=O)Cn2c(=O)n(-c3ccc(CC(=O)NC4CCCC4)cc3)c(=O)c3ccccc32)cc(OC)c1	> 50 µM (inactive)
O=C(NCc1ccc2c(c1)OCO2)c1ccc(C2SCC(=O)N2Cc2ccco2)cc1 (stereo not given)	> 50 µM (inactive)
Cc1ccc2c(c1)c(=O)c(C(=O)c1ccccc1)cn2CC(=O)Nc1ccccc1	8.81 µM
O=C(Nc1ccc2c(c1)OCO2)C1CCN(Cc2nc3ccccc3s2)CC1	> 50 µM (inactive)
Cc1cccc(NC(=O)Nc2ccc(C)n(CC(=O)Nc3ccccc3)c2=O)c1	4.62 µM
O=C(Nc1cccc(C(F)(F)F)c1)c1cc2c(s1)-c1ccccc1OC2	2.13 µM
O=C(c1ccc2ncccc2c1)N1CCC2(C1)Nc1cccnc1NC2=NC1CCCC1 (stereo not given)	> 50 µM (inactive)
COc1ccc(NS(=O)(=O)c2ccc(NC(=O)Nc3ccc(Cl)cc3)cc2)cc1	18.3 µM

SMILES	IC50
O=C(c1cc2ccccc2o1)N1CC=C(c2ccccc2)CC1	> 50 µM (inactive)
COC1C(O)=C2C(=O)O/C(C)=C/C=C/C=C/C=C/CC(c3ccccc3)NC(=O)/C=C/C=C/C=C\C=C\C2(C)C1O (stereo not given)	> 50 µM (inactive)
C/C=C(\Cl)C1=CC(=O)[C@]23C[C@H]2[C@@]2(C)CO[C@@]1(O)[C@@]3(O)O2	> 50 µM (inactive)
Cc1ccccc1Cn1ccc2ccn(Cc3cccnc3)c2c1=O	> 50 µM (inactive)
CC(=O)N1CCc2cc(CNC(=O)Nc3cc(C)ccc3C)ccc21	> 50 µM (inactive)
CC1CCN(S(=O)(=O)c2ccc(C(=O)Nc3ccc(S(N)(=O)=O)cc3)cc2)CC1	29.7 µM
CC1CCN(c2cc(-n3cnc(C(=O)N4CCCC(C)C4)c3)ncn2)CC1 (stereo not given)	> 50 µM (inactive)
CC(OC(=O)c1c2c(nc3ccccc13)CCCCC2)C(=O)Nc1ccc2ccccc2c1 (stereo not given)	2.65 µM
CC(C)OC(=O)c1cc2c(ccn2C)n1CC(=O)N1CCN(C(=O)c2ccco2)CC1	> 50 µM (inactive)
O=C(CSc1nnnn1-c1ccccc1)Nc1ccccc1	31.9 µM
CCOc1ccccc1C(=O)NCC(=O)OC(C(=O)c1c[nH]c2ccccc12)c1ccccc1 (stereo not given)	> 50 µM (inactive)
Cc1ccc(-n2cc(C(=O)NCc3cccnc3)nn2)cc1C	21.6 µM
COC(=O)c1sc2ccccc2c1NC(=O)c1ccc(Br)s1	21.5 µM
c1coc(CNc2nc(Nc3cccc4ccccc34)nc3ccccc23)c1	> 50 µM (inactive)
Cc1ccc(OCC(=O)Nc2cccc(-c3nc4ncccc4o3)c2)c(C)c1	34 µM
O=C(NCc1ccccc1)c1ccc(-c2ccc(N3CCCC3)nn2)cc1	> 50 µM (inactive)
N#Cc1c(N)nc2c(c1N)C(c1ccccc1)CO2 (stereo not given)	42.8 µM
CCCC(=O)Nc1nc2ccc(CCC(=O)NCc3ccc(F)cc3)cc2s1	34.1 µM
CCOc1ccccc1-c1nc(-c2nnn(Cc3ccccc3)c2C)no1	> 50 µM (inactive)
Cc1nn(-c2ccc([N+](=O)[O-])cc2)c(C)c1-c1nc2ccccc2[nH]1	23.6 µM
CCCCCC(O)c1c(O)cc2c(c1O)C(=O)c1c(O)cc(O)cc1C2=O (stereo not given)	> 50 µM (inactive)
O=C(NCc1ccc(F)cc1)C1CCN(c2cnc(N3CCCCC3)nc2)CC1	> 50 µM (inactive)
O=C(c1ccsc1)N1CCC2(C1)Nc1cccnc1NC2=NC1CCCC1 (stereo not given)	> 50 µM (inactive)
CC(C)CCn1c(=O)c2ccccc2n2c(CCC(=O)NC3CCCCCC3)nnc12	> 50 µM (inactive)
Cc1cc(=O)c2c(O)oc(O)c3c(O)cc(=O)c1c32	> 50 µM (inactive)
